The text below walks through data of patent US4224316A, “Synthetic peptides having pituitary growth hormone releasing activity” (Beckman Instruments, Inc., priority 1979, dated 1980).

Square brackets hold non-standard residues; d marks the D form. Peptide text beside a SMILES is read from it.

This assay relates to pituitaries removed from 20 day old female rats. Description: In vitro growth hormone release study (incubated rat pituitaries, GH radioimmunoassay of the medium). Type of assay: cell-based. The note with it: mean ± SEM, two pituitaries in 1 ml lactated Ringer's solution, 36° C., peptide added hourly for 2 hours. On the procedure: Female rats of the CD-l strain were housed in a constant temperature room at 24° C. with 14 hours light and 10 hours darkness. The rats were fed Purina brand rat chow ab libitum.
All studies were started between 0800 and 1000 hours.
Pituitaries were removed from 20 day old female rats. Two pituitaries were incubated at 36° C. in 1 ml of lactated Ringer's solution in 10 ml polytetrafluoroethylene beakers in a Dubnoff Shaker (90 cycles/min.). The pituitaries were incubated a total of 4 hours (P1, P2, I3, and I4). After two successive one hour preincubation periods (P1, P2), the peptide was added to the incubation medium hourly for 2 hours (I3, I4).
This in vitro study was performed in triplicate and a standard radioimmunoassay of growth hormone present in the incubation medium was performed in duplicate. The hormonal activity was calculated as the difference (Δ) of growth hormone (GH) levels between I3, I4 and P2, i.e., (I3 -P2) and (I4 -P2). P values were calculated by Students' t test using six growth hormone values for each value recorded.
The growth hormone radioimmunoassay reagents were distributed by the National Institute of Arthritis and […] (NIAMDD) program. The growth hormone values were calculated in terms of nanograms (ng) of a rat standard with a growth hormone potency of 0.61 units/mg.

On to `CSCC[C@H](NC(=O)[C@H](Cc1ccccc1)NC(=O)[C@@H](Cc1c[nH]c2ccccc12)NC(=O)[C@H](Cc1ccccc1)NC(=O)[C@H](N)Cc1ccccc1)C(N)=O` [H2 N-D-Phe-Phe-D-Trp-Phe-Met-CONH2] (H-[dF]F[dW]FM-NH2), for which the “In vitro growth hormone release (ΔGH between I3, I4 and P2)” value is given as 130 ± 143 ng.increment.GH/ml incubation (1μg peptide), 955 ± 248 ng.increment.GH/ml incubation (10μg peptide) and 1060 ± 469 ng.increment.GH/ml incubation (100μg peptide).

For `NCCCC[C@H](NC(=O)[C@H](Cc1ccccc1)NC(=O)[C@@H](Cc1ccccc1)NC(=O)[C@H](Cc1c[nH]c2ccccc12)NC(=O)[C@H](N)Cc1ccccc1)C(N)=O` [H2 N-D-Phe-Trp-D-Phe-Phe-Lys-CONH2] (H-[dF]W[dF]FK-NH2), the “In vitro growth hormone release (ΔGH between I3, I4 and P2)” value (1μg peptide) was -109 ± 101 ng.increment.GH/ml incubation; the “In vitro growth hormone release (ΔGH between I3, I4 and P2)” value (10μg peptide) was 888 ± 120 ng.increment.GH/ml incubation; the “In vitro growth hormone release (ΔGH between I3, I4 and P2)” value (100μg peptide) is listed as 963 ± 96 ng.increment.GH/ml incubation.

In the case of `CSCC[C@H](NC(=O)[C@H](Cc1ccccc1)NC(=O)[C@@H](Cc1ccccc1)NC(=O)[C@H](Cc1c[nH]c2ccccc12)NC(=O)[C@H](N)Cc1ccccc1)C(N)=O` [H2 N-D-Phe-Trp-D-Phe-Phe-Met-CONH2] (H-[dF]W[dF]FM-NH2), the “In vitro growth hormone release (ΔGH between I3, I4 and P2)” value by setting is: (10μg peptide) 1469 ± 153 ng.increment.GH/ml incubation; (100μg peptide) 1483 ± 168 ng.increment.GH/ml incubation.
